Like-named read-outs stand apart in the source and are kept apart here.
Tests used:
Assay type in all cases: cell-based, human
NCI-H522 = assay: SRB anticancer assay, non-small lung; parameters: Log10GI50: unit not given here
MDA-MB-231/ATCC = assay: SRB anticancer assay, breast; parameters: Log10GI50: unit not given here; conditions: for GI50: Homo sapiens, MDA-MB-231, 48 h, 48 h, read-out: GI50
ACHN = assay: SRB anticancer assay, renal; parameters: Log10GI50: unit not given here
OVCAR-4 = assay: SRB anticancer assay, ovarian; conditions: Homo sapiens, OVCAR-4, 48 h
MDA-MB-468 = assay: SRB anticancer assay, breast; parameters: unit not given here; conditions: present compounds
SNB-19 = assay: SRB anticancer assay, CNS; parameters: Log10GI50: unit not given here
DU-145 = assay: SRB anticancer assay, prostate; parameters: Log10GI50: unit not given here
COLO 205 = assay: SRB anticancer assay, colon; conditions: Homo sapiens, COLO 205, 48 h
OVCAR-8 = assay: SRB anticancer assay, ovarian; parameters: Log10GI50: unit not given here
A549/ATCC = assay: SRB anticancer assay, non-small lung; parameters: Log10GI50: unit not given here
SK-OV-3 = assay: SRB anticancer assay, ovarian; conditions: Homo sapiens, SK-OV-3, 48 h
NCI/ADR-RES = assay: SRB anticancer assay, ovarian; parameters: Log10GI50: unit not given here; conditions: for Log10GI50: present compounds
UACC-257 = assay: SRB anticancer assay, melanoma
U251 = assay: SRB anticancer assay, CNS; parameters: Log10GI50: unit not given here
SF-539 = assay: SRB anticancer assay, CNS; parameters: Log10GI50: unit not given here
KM12 = assay: SRB anticancer assay, colon; conditions: Homo sapiens, KM12, 48 h
[1] = tested on: Prostate cancer cell lines; assay: SRB anticancer assay, panel result
Procedure, shortened: (§1)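 Tested across a sixty-line human cancer panel spanning nine tumour types. Dose–response curves used at least five concentrations in 10-fold dilution steps, with 48 h continuous drug exposure; cell growth/viability was estimated by sulforhodamine B protein staining.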

Breast cancer cell lines = assay: SRB anticancer assay, panel result
Procedure, shortened: as §1

CNS cancer cell lines = assay: SRB anticancer assay, panel result
Procedure, shortened: as §1

Colon cancer cell lines = assay: SRB anticancer assay, panel result
Procedure, shortened: as §1

[2] = tested on: Ovarian cancer cell lines; assay: SRB anticancer assay, panel result
Procedure, shortened: as §1

[3] = tested on: Melanoma cancer cell lines; assay: SRB anticancer assay, panel result
Procedure, shortened: as §1

Renal cancer cell lines = assay: SRB anticancer assay, panel result
Procedure, shortened: as §1

[4] = tested on: Non-small cell lung cancer cell lines; assay: SRB anticancer assay, panel result
Procedure, shortened: as §1

[5] = tested on: Leukemia cancer cell lines; assay: SRB anticancer assay, panel result
Procedure, shortened: as §1

HT29 = assay: SRB anticancer assay, colon; conditions: Homo sapiens, HT-29; HT29, 48 h
NCI-H226 = assay: SRB anticancer assay, non-small lung; conditions: Homo sapiens, NCI-H226, 48 h

Structure (SMILES): COc1cc(OC)cc(-c2cncn2-c2ccc(-c3nc4cc(OC)c(OC)c(OC)c4s3)cc2)c1 [Compound 7d, 2-(4-(5-(3,5-Dimethoxyphenyl)-1H-imidazol-1-yl)phenyl)-5,6,7-trimethoxybenzo[d]thiazole]
- GI50 (NCI-H522; Homo sapiens, NCI-H522, 48 h): 11.8 µM
- Log10GI50 (NCI-H522; NCI-H522, present compounds): −4.93
- GI50 (MDA-MB-231/ATCC; MDA-MB-231/ATCC (row head MDA-MB-)): 19.2 µM
- GI50 (MDA-MB-231/ATCC; row head printed 231/ATCC (second line of MDA-MB-231/ATCC)): 20.9 µM
- Log10GI50 (MDA-MB-231/ATCC; MDA-MB-231/ATCC, present compounds): −4.72
- GI50 (ACHN; Homo sapiens, 48 h): 11.5 µM
- Log10GI50 (ACHN; present compounds): −4.94
- GI50 (OVCAR-4): 6.67 µM
- Log10GI50 (MDA-MB-468): −4.97
- GI50 (SNB-19; Homo sapiens, SNB-19, 48 h): 19.7 µM
- Log10GI50 (SNB-19; SNB-19, present compounds): −4.70
- Log10GI50 (DU-145; DU-145, present compounds): −4.51
- GI50 (DU-145; Homo sapiens, DU-145, 48 h): 31.1 µM
- GI50 (COLO 205): 3.85 µM
- GI50 (OVCAR-8; Homo sapiens, OVCAR-8, 48 h): 13.4 µM
- Log10GI50 (OVCAR-8; OVCAR-8, present compounds): −4.87
- GI50 (A549/ATCC; Homo sapiens, 48 h): 5.59 µM
- Log10GI50 (A549/ATCC; present compounds): −5.25
- GI50 (SK-OV-3): 49.9 µM
- GI50 (NCI/ADR-RES; Homo sapiens, NCI/ADR-RES, 48 h): 11 µM
- Log10GI50 (NCI/ADR-RES; NCI/ADR-RES (row head NCI/ADR-)): −4.96
- Log10GI50 (NCI/ADR-RES; listed as head printed RES (second line of NCI/ADR-RES)): −4.30
- GI50 (UACC-257; Homo sapiens, UACC-257, 48 h): 20.5 µM
- Log10GI50 (UACC-257; UACC-257, present compounds): −4.69 log10(M)
- GI50 (U251; Homo sapiens, U-251, U251, 48 h): 5.44 µM
- Log10GI50 (U251; U251, present compounds): −5.26
- GI50 (SF-539; Homo sapiens, SF-539, 48 h): 22 µM
- Log10GI50 (SF-539; SF-539, present compounds): −4.66
- GI50 (KM12): 5.54 µM
- LC50 ([1]; Homo sapiens, Prostate panel, 50% net cell death, read-out: mean graph midpoint value (MG_MID) of Log10 LC50 (converted)): > 100 µM
- GI50 ([1]; Homo sapiens, Prostate panel, read-out: mean graph midpoint value (MG_MID) of Log10 GI50 (converted)): 10 µM
- GI50 ([1]; Homo sapiens, two prostate cancer cell lines (PC-3, DU-145), exposure at least 48 h, read-out: GI50, range over the panel): 3.17 to 31.1 µM
- mean graph midpoint value (MG_MID) of log10 TGI ([1]; Prostate panel, total inhibition of net cell growth): >−4.0
- mean graph midpoint value (MG_MID) of log10 TGI (Breast cancer cell lines; Breast panel, total inhibition of net cell growth): >−4.0
- CC50 (Breast cancer cell lines; Homo sapiens, Breast panel, 50% net cell death, read-out: mean graph midpoint value (MG_MID) of Log10 LC50 (converted)): > 100 µM
- GI50 (Breast cancer cell lines; Homo sapiens, Breast panel, read-out: mean graph midpoint value (MG_MID) of Log10 GI50 (converted)): 9.12 µM
- GI50 (Breast cancer cell lines; Homo sapiens, six breast cancer cell lines, exposure at least 48 h, read-out: GI50, range over the panel): 4.02 to 20.9 µM
- mean graph midpoint value (MG_MID) of log10 TGI (CNS cancer cell lines; CNS panel, total inhibition of net cell growth): −4.11
- CC50 (CNS cancer cell lines; Homo sapiens, CNS panel, 50% net cell death, read-out: mean graph midpoint value (MG_MID) of Log10 LC50 (converted)): > 100 µM
- GI50 (CNS cancer cell lines; Homo sapiens, CNS panel, read-out: mean graph midpoint value (MG_MID) of Log10 GI50 (converted)): 12 µM
- GI50 (CNS cancer cell lines; Homo sapiens, six CNS cancer cell lines, exposure at least 48 h, read-out: GI50, range over the panel): 3.64 to 22.1 µM
- mean graph midpoint value (MG_MID) of log10 TGI (Colon cancer cell lines; Colon panel, total inhibition of net cell growth): >−4.0
- LC50 (Colon cancer cell lines; Homo sapiens, Colon panel, 50% net cell death, read-out: mean graph midpoint value (MG_MID) of Log10 LC50 (converted)): > 100 µM
- GI50 (Colon cancer cell lines; Homo sapiens, Colon panel, read-out: mean graph midpoint value (MG_MID) of Log10 GI50 (converted)): 9.12 µM
- GI50 (Colon cancer cell lines; Homo sapiens, seven colon cancer cell lines, exposure at least 48 h, read-out: GI50, range over the panel): 3.76 to 13.7 µM
- LC50 ([2]; Homo sapiens, Ovarian panel, 50% net cell death, read-out: mean graph midpoint value (MG_MID) of Log10 LC50 (converted)): > 100 µM
- GI50 ([2]; Homo sapiens, Ovarian panel, read-out: mean graph midpoint value (MG_MID) of Log10 GI50 (converted)): 16.2 µM
- GI50 ([2]; Homo sapiens, seven ovarian cancer cell lines, exposure at least 48 h, read-out: GI50, range over the panel): 6.07 to 49.9 µM
- mean graph midpoint value (MG_MID) of log10 TGI ([2]; Ovarian panel, total inhibition of net cell growth): −4.08
- LC50 ([3]; Homo sapiens, Melanoma panel, 50% net cell death, read-out: mean graph midpoint value (MG_MID) of Log10 LC50 (converted)): > 100 µM
- GI50 ([3]; Homo sapiens, Melanoma panel, read-out: mean graph midpoint value (MG_MID) of Log10 GI50 (converted)): 9.33 µM
- GI50 ([3]; Homo sapiens, nine melanoma cancer cell lines, exposure at least 48 h, read-out: GI50, range over the panel): 2.85 to 31.6 µM
- mean graph midpoint value (MG_MID) of log10 TGI ([3]; Melanoma panel, total inhibition of net cell growth): −4.02
- CC50 (Renal cancer cell lines; Homo sapiens, Renal panel, 50% net cell death, read-out: mean graph midpoint value (MG_MID) of Log10 LC50 (converted)): > 100 µM
- GI50 (Renal cancer cell lines; Homo sapiens, Renal panel, read-out: mean graph midpoint value (MG_MID) of Log10 GI50 (converted)): 14.8 µM
- GI50 (Renal cancer cell lines; Homo sapiens, eight renal cancer cell lines, exposure at least 48 h, read-out: GI50, range over the panel): 1.94 to 31.9 µM
- mean graph midpoint value (MG_MID) of log10 TGI (Renal cancer cell lines; Renal panel, total inhibition of net cell growth): −4.03
- LC50 ([4]; Homo sapiens, Non-small cell lung panel, 50% net cell death, read-out: mean graph midpoint value (MG_MID) of Log10 LC50 (converted)): > 100 µM
- GI50 ([4]; Homo sapiens, Non-small cell lung panel, read-out: mean graph midpoint value (MG_MID) of Log10 GI50 (converted)): 15.1 µM
- GI50 ([4]; Homo sapiens, nine Non-small cell lung cancer cell lines, exposure at least 48 h, read-out: GI50, range over the panel): 1.87 to 86.5 µM
- mean graph midpoint value (MG_MID) of log10 TGI ([4]; Non-small cell lung panel, total inhibition of net cell growth): >−4.0
- LC50 ([5]; Homo sapiens, Leukemia panel, 50% net cell death, read-out: mean graph midpoint value (MG_MID) of Log10 LC50 (converted)): > 100 µM
- GI50 ([5]; Homo sapiens, Leukemia panel, read-out: mean graph midpoint value (MG_MID) of Log10 GI50 (converted)): 3.72 µM
- GI50 ([5]; Homo sapiens, six leukemia cancer cell lines, exposure at least 48 h, read-out: GI50, range over the panel): 2.43 to 7.14 µM
- mean graph midpoint value (MG_MID) of log10 TGI ([5]; Leukemia panel, total inhibition of net cell growth): >−4.0
- GI50 (HT29): 8.33 µM
- GI50 (NCI-H226): 21.7 µM

Reference: patent publication US9187467B2, “2-phenyl benzothiazole linked imidazole compounds as potential anticancer agents and process for the preparation thereof” (Council of Scientific and Industrial Research, priority 2012, dated 2015)
